In ChEMBL document CHEMBL1139666, “Discovery and synthesis of a novel series of quinoline-based thrombin receptor (PAR-1) antagonists” (Bioorg Med Chem Lett, 2006):
Active and inactive are the calls of the source. No cut-off for these calls is given here.

Biological target: T1, Proteinase-activated receptor 1 (Homo sapiens, UniProt P25116)
T1 sequence (P25116 whole entry): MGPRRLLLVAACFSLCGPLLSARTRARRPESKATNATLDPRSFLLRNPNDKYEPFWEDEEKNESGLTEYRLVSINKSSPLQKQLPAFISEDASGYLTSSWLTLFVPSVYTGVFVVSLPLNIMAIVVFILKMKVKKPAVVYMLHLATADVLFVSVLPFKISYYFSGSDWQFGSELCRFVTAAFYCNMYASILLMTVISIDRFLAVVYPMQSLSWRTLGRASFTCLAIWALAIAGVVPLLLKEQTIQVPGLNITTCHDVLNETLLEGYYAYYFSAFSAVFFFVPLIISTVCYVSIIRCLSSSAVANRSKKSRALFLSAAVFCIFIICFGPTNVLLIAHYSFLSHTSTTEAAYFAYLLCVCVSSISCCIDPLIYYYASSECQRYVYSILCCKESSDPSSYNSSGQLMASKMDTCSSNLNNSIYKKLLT
Test: Displacement of [3H]haTRAP from PAR1 in human platelet membrane
Format: cell membranes
Settings: not given

| SMILES | IC50 [nM] |
| --- | --- |
| COc1ccc2nc(/C=C/[C@H]3[C@@H]4CCCC[C@H]4C[C@H]4C(=O)O[C@H](C)[C@@H]34)ccc2c1OC | 50 |
| C[C@H]1OC(=O)[C@@H]2C[C@@H]3CCCC[C@H]3[C@H](/C=C/c3ccc4cc(-c5cccc(C(F)(F)F)c5)ccc4n3)[C@H]12 | 300 |
| C[C@H]1OC(=O)[C@@H]2C[C@@H]3CCCC[C@H]3[C@H](/C=C/c3ccc4cc(OCC(=O)N5CCOCC5)ccc4n3)[C@H]12 | 500 |
| Cc1cccc2ccc(/C=C/[C@H]3[C@@H]4CCCC[C@H]4C[C@H]4C(=O)O[C@H](C)[C@@H]34)nc12 (racemic) | 390 |
| C[C@H]1OC(=O)[C@@H]2C[C@@H]3CCCC[C@H]3[C@H](/C=C/c3ccc4cc(Cl)ccc4n3)[C@H]12 (racemic) | 155 |
| C[C@H]1OC(=O)[C@@H]2C[C@@H]3CCCC[C@H]3[C@H](/C=C/c3ccc4cc(OCC(=O)NC5CC5)ccc4n3)[C@H]12 | 290 |
| C[C@H]1OC(=O)[C@@H]2C[C@@H]3CCCC[C@H]3[C@H](/C=C/c3ccc4cc(N)ccc4n3)[C@H]12 | 30 |
| C[C@H]1OC(=O)[C@@H]2C[C@@H]3CCCC[C@H]3[C@H](/C=C/c3ccc4cc(-c5ccsc5)ccc4n3)[C@H]12 | 50 |
| COc1cccc2ccc(/C=C/[C@H]3[C@@H]4CCCC[C@H]4C[C@H]4C(=O)O[C@H](C)[C@@H]34)nc12 (racemic) | 700 |
| C[C@H]1OC(=O)[C@@H]2C[C@@H]3CCCC[C@H]3[C@H](/C=C/c3ccc4cc(F)ccc4n3)[C@H]12 (racemic) | 730 |
| COc1ccc2nc(/C=C/[C@H]3[C@@H]4CCCC[C@H]4C[C@H]4C(=O)O[C@H](C)[C@@H]34)ccc2c1Cl (racemic) | 800 |
| Cc1ccc2ccc(/C=C/[C@H]3[C@@H]4CCCC[C@H]4C[C@H]4C(=O)O[C@H](C)[C@@H]34)nc2c1 (racemic) | 150 |

Further lines, results first:

| IC50 [nM] | SMILES |
| --- | --- |
| 28 | CCCC(=O)Nc1ccc2nc(/C=C/[C@H]3[C@@H]4CCCC[C@H]4C[C@H]4C(=O)O[C@H](C)[C@@H]34)ccc2c1 |
| 6.3 | C[C@H]1OC(=O)[C@@H]2C[C@@H]3CCCC[C@H]3[C@H](/C=C/c3ccc4cc(O)ccc4n3)[C@H]12 |
| 1000 | C[C@H]1OC(=O)[C@@H]2C[C@@H]3CCCC[C@H]3[C@H](/C=C/c3ccc4cc(OCC(N)=O)ccc4n3)[C@H]12 |
| 68 | CCC(=O)Nc1ccc2nc(/C=C/[C@H]3[C@@H]4CCCC[C@H]4C[C@H]4C(=O)O[C@H](C)[C@@H]34)ccc2c1 |
| 800 | C[C@H]1OC(=O)[C@@H]2C[C@@H]3CCCC[C@H]3[C@H](/C=C/c3ccc4cc(OC(C)(C)C(N)=O)ccc4n3)[C@H]12 |
| 500 | C[C@H]1OC(=O)[C@@H]2C[C@@H]3CCCC[C@H]3[C@H](/C=C/c3ccc4cc(OC(C)(C)C(=O)Nc5ccccc5)ccc4n3)[C@H]12 |
| 2150 | C[C@H]1OC(=O)[C@@H]2C[C@@H]3CCCC[C@H]3[C@H](/C=C/c3ccc4cc(NC(=O)C(C)(C)C)ccc4n3)[C@H]12 |
| 29 | C[C@H]1OC(=O)[C@@H]2C[C@@H]3CCCC[C@H]3[C@H](/C=C/c3ccc4cc(OCC(=O)O)ccc4n3)[C@H]12 |
| 1250 | C[C@H]1OC(=O)[C@@H]2C[C@@H]3CCCC[C@H]3[C@H](/C=C/c3ccc4cc(OCc5ccccc5)ccc4n3)[C@H]12 |
| 125 | CCOc1ccc2nc(/C=C/[C@H]3[C@@H]4CCCC[C@H]4C[C@H]4C(=O)O[C@H](C)[C@@H]34)ccc2c1 (racemic) |
| 100 | CC(=O)Nc1ccc2nc(/C=C/[C@H]3[C@@H]4CCCC[C@H]4C[C@H]4C(=O)O[C@H](C)[C@@H]34)ccc2c1 |
| 219 | C[C@H]1OC(=O)[C@@H]2C[C@@H]3CCCC[C@H]3[C@H](/C=C/c3ccc4cc(NC(=O)c5ccccc5)ccc4n3)[C@H]12 |
| 275 | C[C@H]1OC(=O)[C@@H]2C[C@@H]3CCCC[C@H]3[C@H](/C=C/c3ccc4cc(OCCNC(=O)OC(C)(C)C)ccc4n3)[C@H]12 (racemic) |
| 300 | C[C@H]1OC(=O)[C@@H]2C[C@@H]3CCCC[C@H]3[C@H](/C=C/c3ccc4cc(-c5cccs5)ccc4n3)[C@H]12 |
| 25 | C[C@H]1OC(=O)[C@@H]2C[C@@H]3CCCC[C@H]3[C@H](/C=C/c3ccc4cc(OCC(=O)Nc5ccccc5)ccc4n3)[C@H]12 |

Tested on: not listed separately
Test: AUC(0-4h) in cynomolgus monkey at 10 mg/kg
Format: ADME, organism-based, Macaca fascicularis
Parameters: time < 5 hr, dose 10 mg/kg
Settings: plasma

| AUC(0-t) at 5 h [ng·h/mL] | SMILES |
| --- | --- |
| 826 | C[C@H]1OC(=O)[C@@H]2C[C@@H]3CCCC[C@H]3[C@H](/C=C/c3ccc4cc(O)ccc4n3)[C@H]12 |
| 17 | C[C@H]1OC(=O)[C@@H]2C[C@@H]3CCCC[C@H]3[C@H](/C=C/c3ccc4cc(OCC(=O)O)ccc4n3)[C@H]12 |

Tested on: Cynomolgus monkey
Test: Inhibition of platelet aggregation in orally dosed cynomolgus monkey
Format: functional, organism-based
Settings: Macaca fascicularis

| SMILES | inhibition |
| --- | --- |
| C[C@H]1OC(=O)[C@@H]2C[C@@H]3CCCC[C@H]3[C@H](/C=C/c3ccc4cc(OCC(=O)O)ccc4n3)[C@H]12 | inactive |

Biological target: T1, Proteinase-activated receptor 1
Test: Displacement of [3H]haTRAP from PAR1 in human platelet membrane at […]
Format: cell membranes
Settings: not given

| IC50 | SMILES |
| --- | --- |
| Not Active | C[C@H]1OC(=O)[C@@H]2C[C@@H]3CCCC[C@H]3[C@H](/C=C/c3ccc4cc(OC(F)(F)F)ccc4n3)[C@H]12 |
| Not Active | COc1cc(/C=C/[C@H]2[C@@H]3CCCC[C@H]3C[C@H]3C(=O)O[C@H](C)[C@@H]23)nc2ccccc12 (racemic) |
| Not Active | C[C@H]1OC(=O)[C@@H]2C[C@@H]3CCCC[C@H]3[C@H](/C=C/c3ccc4cc(OCCN)ccc4n3)[C@H]12 (racemic) |
| Not Active | C[C@H]1OC(=O)[C@@H]2C[C@@H]3CCCC[C@H]3[C@H](/C=C/c3cc(OCc4ccccc4)c4ccccc4n3)[C@H]12 (racemic) |

Tested on: Cynomolgus monkey
Test: Inhibition of platelet aggregation in cynomolgus monkey 2 hrs post dose iv
Format: functional, organism-based
Settings: Macaca fascicularis

| SMILES | inhibition |
| --- | --- |
| C[C@H]1OC(=O)[C@@H]2C[C@@H]3CCCC[C@H]3[C@H](/C=C/c3ccc4cc(OCC(=O)O)ccc4n3)[C@H]12 | Active |
